Reference: ChEMBL document CHEMBL5465560, “Selectivity Literature for EUbOPEN Chemogenomic Library” (2024)
Blank lines part the entries; values can stand above or below the molecule they belong to.

Assays:
[1] = molecular target: Mitogen-activated protein kinase 10 (Homo sapiens, UniProt P53779); experiment: Selectivity interaction (KinomeScan (DiscoverX)) EUB0001079a MAPK10; details: at 1 µM
[2] = molecular target: Leucine-rich repeat serine/threonine-protein kinase 2 (Homo sapiens, UniProt Q5S007); experiment: (§1) Selectivity interaction (KinomeScan (DiscoverX)) EUB0000595a LRRK2; details: at 10 µM
Sequence of Leucine-rich repeat serine/threonine-protein kinase 2 (Q5S007 whole entry): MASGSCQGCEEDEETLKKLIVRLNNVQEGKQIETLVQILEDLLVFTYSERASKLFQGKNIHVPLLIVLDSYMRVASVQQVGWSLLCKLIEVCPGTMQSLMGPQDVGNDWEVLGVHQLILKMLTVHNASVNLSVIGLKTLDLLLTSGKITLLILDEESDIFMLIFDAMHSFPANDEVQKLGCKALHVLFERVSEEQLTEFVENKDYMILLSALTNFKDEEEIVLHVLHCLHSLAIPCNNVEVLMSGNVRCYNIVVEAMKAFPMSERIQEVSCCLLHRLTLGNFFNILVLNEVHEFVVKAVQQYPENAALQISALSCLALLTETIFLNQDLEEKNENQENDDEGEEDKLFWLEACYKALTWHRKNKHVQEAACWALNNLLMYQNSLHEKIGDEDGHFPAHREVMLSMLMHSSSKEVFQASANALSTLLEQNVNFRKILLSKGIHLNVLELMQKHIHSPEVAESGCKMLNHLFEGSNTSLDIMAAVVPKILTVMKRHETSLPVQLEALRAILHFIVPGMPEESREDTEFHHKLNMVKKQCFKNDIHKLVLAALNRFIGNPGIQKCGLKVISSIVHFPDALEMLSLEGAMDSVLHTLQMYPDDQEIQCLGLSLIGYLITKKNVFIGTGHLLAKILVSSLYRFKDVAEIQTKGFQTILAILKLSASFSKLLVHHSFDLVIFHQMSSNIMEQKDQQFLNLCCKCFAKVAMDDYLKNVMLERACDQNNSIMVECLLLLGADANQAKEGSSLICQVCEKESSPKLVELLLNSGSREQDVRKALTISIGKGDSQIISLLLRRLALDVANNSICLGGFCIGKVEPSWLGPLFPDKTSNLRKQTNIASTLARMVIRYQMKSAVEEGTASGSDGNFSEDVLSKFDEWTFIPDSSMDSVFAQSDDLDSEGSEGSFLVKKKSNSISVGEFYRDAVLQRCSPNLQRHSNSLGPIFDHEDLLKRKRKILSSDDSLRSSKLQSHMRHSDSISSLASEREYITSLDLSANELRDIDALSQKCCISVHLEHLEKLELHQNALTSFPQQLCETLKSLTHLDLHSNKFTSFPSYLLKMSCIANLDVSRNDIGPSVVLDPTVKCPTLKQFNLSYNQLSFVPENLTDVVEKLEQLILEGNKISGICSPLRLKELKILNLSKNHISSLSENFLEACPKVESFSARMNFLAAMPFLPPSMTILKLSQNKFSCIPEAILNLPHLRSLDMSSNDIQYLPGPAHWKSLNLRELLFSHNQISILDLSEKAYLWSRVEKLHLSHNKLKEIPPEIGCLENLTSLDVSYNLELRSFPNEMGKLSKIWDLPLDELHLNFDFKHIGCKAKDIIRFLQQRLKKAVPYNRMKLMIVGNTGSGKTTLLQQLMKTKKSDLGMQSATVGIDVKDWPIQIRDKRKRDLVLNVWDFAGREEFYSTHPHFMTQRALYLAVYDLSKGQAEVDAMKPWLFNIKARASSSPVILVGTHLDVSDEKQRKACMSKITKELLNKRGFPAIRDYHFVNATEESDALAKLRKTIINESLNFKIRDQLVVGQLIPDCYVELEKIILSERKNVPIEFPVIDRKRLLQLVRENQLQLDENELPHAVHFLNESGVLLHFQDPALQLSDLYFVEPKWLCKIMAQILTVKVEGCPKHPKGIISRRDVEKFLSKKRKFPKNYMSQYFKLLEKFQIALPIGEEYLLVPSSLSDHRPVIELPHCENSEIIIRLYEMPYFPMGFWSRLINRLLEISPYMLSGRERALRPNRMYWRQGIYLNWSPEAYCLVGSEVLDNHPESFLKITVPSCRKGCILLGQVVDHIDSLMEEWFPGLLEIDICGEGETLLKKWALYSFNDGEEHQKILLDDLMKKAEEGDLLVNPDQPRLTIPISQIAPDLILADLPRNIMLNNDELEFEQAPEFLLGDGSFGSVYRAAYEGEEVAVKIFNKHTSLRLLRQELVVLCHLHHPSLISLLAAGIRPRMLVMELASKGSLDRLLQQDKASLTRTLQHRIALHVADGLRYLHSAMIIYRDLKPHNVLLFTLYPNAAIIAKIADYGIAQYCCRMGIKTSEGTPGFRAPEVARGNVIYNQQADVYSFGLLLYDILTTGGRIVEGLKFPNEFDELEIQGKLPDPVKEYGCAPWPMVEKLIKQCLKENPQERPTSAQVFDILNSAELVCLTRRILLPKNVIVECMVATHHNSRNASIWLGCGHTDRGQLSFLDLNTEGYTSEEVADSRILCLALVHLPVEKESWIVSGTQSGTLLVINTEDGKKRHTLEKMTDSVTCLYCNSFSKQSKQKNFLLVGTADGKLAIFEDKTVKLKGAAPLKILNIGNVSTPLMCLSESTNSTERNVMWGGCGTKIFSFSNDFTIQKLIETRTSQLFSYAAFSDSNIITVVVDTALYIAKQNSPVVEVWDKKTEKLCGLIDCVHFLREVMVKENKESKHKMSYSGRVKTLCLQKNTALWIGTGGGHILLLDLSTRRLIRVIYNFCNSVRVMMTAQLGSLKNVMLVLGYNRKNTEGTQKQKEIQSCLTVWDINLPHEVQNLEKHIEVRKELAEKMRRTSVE

[3] = system: Leucine-rich repeat serine/threonine-protein kinase 2 (Homo sapiens), Q5S007 [G2019S]; experiment: as §1; details: at 10 µM
Sequence of Leucine-rich repeat serine/threonine-protein kinase 2 (Homo sapiens), Q5S007 [G2019S] (Q5S007 whole entry G2019S): as the sequence (Q5S007 whole entry) above, with G2019S counted along it

[4] = molecular target: Serine/threonine-protein kinase PAK 4 (Homo sapiens, UniProt O96013); experiment: Selectivity interaction (KinomeScan (DiscoverX)) EUB0000595a PAK4; details: at 10 µM
[5] = molecular target: Hepatocyte growth factor-like protein (Homo sapiens) (UniProt P26927); details: at 1 µM
[6] = molecular target: T1, Interleukin-1 receptor-associated kinase 4 (Homo sapiens) (UniProt Q9NWZ3); experiment: Selectivity interaction (Kinase panel (KiNativ target engagement assay in Jurkat cells)) EUB0001635a IRAK4; format: cell-based; details: Selectivity number of off-targets 0.0, Selectivity number of targets 233.0, Source Knowledge https://www.sciencedirect.com/science/article/pii/S2451945619300674?via%3Dihub, at 1 µM
T1 sequence (whole entry): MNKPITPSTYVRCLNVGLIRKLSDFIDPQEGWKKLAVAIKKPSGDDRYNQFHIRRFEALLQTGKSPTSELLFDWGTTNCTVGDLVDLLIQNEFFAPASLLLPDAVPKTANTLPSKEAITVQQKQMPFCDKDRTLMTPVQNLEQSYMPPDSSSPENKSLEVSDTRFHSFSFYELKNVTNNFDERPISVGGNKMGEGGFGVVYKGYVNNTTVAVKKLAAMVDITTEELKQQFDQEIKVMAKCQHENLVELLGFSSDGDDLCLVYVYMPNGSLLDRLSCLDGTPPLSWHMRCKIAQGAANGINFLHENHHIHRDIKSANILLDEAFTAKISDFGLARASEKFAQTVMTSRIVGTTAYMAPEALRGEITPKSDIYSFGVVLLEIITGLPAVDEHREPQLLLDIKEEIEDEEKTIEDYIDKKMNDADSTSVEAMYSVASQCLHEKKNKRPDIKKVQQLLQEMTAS

[7] = molecular target: T2, Serine/threonine-protein kinase LATS2 (Homo sapiens) (UniProt Q9NRM7); experiment: Selectivity interaction (Kinase panel (KiNativ target engagement assay in Jurkat cells)) EUB0001635a LATS2; format: cell-based; details: Selectivity number of off-targets 0.0, Selectivity number of targets 233.0, Source Knowledge https://www.sciencedirect.com/science/article/pii/S2451945619300674?via%3Dihub, at 1 µM
T2 sequence (whole entry): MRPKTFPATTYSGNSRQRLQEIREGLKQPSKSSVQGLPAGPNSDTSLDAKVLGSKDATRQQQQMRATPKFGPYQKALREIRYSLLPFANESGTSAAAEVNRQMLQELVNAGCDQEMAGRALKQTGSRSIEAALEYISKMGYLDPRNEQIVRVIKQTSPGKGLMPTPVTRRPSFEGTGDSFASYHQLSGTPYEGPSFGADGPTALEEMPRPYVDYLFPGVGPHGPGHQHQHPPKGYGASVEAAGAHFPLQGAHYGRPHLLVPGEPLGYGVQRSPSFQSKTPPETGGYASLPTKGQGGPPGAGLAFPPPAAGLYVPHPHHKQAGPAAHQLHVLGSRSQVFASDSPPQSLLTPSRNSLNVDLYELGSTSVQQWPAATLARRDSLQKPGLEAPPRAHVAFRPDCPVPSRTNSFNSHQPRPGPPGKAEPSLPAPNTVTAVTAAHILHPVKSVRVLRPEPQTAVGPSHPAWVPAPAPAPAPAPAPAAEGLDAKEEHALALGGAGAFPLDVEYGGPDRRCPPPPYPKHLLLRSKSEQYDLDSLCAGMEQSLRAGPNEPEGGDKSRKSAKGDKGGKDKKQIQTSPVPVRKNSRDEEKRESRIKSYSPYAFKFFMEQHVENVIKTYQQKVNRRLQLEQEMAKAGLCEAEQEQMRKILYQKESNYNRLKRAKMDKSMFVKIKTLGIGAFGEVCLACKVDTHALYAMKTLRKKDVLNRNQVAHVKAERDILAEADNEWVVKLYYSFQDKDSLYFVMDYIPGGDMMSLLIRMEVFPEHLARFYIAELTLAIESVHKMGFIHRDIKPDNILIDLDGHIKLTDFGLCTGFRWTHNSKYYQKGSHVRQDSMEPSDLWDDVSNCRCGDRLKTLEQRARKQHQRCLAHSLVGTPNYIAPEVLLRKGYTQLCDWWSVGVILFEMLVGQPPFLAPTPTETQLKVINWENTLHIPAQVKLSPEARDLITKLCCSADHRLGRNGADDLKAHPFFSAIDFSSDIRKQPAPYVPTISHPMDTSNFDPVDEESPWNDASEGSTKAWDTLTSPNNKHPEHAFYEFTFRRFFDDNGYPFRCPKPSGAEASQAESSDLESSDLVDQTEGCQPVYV

[8] = molecular target: T3, Tyrosine-protein kinase Tec (Homo sapiens) (UniProt P42680); experiment: Selectivity interaction (ActivX KiNativ screen (kinase selectivity in THP-1 cell lysates)) EUB0000639a TEC; format: subcellular; details: lysate, at 0.04 µM
T3 sequence (whole entry): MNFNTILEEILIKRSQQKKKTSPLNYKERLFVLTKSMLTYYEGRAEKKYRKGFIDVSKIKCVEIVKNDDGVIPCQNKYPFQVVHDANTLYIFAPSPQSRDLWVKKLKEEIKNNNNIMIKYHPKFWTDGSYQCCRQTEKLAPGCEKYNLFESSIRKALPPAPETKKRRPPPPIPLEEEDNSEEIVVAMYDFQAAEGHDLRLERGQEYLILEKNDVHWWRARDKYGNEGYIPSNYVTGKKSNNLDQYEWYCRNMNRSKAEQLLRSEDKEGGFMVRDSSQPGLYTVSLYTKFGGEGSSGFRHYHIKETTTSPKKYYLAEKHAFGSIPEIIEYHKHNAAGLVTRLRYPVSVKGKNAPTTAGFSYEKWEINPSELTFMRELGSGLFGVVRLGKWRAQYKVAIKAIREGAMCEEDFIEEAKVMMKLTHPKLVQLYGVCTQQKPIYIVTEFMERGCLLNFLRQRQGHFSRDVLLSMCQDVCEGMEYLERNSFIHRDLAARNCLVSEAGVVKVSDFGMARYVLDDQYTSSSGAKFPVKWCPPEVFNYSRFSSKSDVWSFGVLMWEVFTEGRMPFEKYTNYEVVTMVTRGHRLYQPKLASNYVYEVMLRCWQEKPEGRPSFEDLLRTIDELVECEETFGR

[9] = molecular target: Tyrosine-protein kinase HCK (Homo sapiens) (UniProt P08631); experiment: Selectivity interaction (ActivX KiNativ screen (kinase selectivity in THP-1 cell lysates)) EUB0000639a HCK; format: subcellular; details: lysate, at 5 µM
Sequence of Tyrosine-protein kinase HCK (Homo sapiens) (P08631 2-526 limits assumed): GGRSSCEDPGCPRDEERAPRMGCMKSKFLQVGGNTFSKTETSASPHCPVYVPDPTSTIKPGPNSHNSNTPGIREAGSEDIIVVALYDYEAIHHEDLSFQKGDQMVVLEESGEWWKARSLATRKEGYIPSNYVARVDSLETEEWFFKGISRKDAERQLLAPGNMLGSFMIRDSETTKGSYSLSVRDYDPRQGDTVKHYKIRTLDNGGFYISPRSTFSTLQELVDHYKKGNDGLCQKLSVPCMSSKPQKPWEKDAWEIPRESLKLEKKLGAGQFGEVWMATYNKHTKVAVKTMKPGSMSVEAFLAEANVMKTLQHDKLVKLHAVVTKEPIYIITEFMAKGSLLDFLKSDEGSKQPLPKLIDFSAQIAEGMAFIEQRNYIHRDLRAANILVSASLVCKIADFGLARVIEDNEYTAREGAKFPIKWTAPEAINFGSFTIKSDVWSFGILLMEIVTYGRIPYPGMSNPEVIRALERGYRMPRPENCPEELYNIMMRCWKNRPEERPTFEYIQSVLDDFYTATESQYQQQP

[10] = molecular target: Tyrosine-protein kinase ABL1 (Homo sapiens, UniProt P00519); experiment: Selectivity interaction (Kinase panel (Invitrogen)) EUB0000639a ABL1; details: at 200 nM
Sequence of Tyrosine-protein kinase ABL1 (P00519 whole entry): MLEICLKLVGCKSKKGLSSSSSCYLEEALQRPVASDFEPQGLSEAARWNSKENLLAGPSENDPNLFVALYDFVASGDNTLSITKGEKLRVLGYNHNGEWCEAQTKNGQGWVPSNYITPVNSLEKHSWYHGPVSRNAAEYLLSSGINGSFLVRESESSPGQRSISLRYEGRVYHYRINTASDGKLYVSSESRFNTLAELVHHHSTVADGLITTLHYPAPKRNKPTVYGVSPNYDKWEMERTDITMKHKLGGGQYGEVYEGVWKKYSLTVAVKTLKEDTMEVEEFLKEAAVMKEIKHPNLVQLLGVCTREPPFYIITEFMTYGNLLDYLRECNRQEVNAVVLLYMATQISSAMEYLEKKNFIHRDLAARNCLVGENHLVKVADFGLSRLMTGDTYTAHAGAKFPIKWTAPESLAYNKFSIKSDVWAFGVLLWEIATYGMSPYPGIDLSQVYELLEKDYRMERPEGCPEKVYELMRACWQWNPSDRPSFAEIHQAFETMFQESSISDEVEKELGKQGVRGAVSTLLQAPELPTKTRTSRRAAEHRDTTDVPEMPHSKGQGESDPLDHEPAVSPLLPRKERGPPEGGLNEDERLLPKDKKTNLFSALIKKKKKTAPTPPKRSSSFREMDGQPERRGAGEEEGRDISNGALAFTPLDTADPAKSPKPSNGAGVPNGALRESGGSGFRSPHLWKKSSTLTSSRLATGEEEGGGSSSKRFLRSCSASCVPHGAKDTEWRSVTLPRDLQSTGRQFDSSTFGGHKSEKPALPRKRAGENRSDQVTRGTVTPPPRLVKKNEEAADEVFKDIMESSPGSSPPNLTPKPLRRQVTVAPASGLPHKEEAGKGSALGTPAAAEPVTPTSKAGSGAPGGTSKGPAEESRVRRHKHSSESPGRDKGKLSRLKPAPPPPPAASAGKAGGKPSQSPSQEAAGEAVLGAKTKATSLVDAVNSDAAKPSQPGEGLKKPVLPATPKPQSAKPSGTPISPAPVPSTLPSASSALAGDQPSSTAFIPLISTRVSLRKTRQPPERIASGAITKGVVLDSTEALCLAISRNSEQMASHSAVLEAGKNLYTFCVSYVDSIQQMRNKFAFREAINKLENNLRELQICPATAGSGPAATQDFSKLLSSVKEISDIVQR

[11] = molecular target: Serine/threonine-protein kinase tousled-like 2 (Homo sapiens) (UniProt Q86UE8); experiment: Selectivity interaction (KinomeScan (DiscoverX)) EUB0000229b TLK2; details: at 10 µM
Sequence of Serine/threonine-protein kinase tousled-like 2 (Homo sapiens) (Q86UE8 whole entry, looked up): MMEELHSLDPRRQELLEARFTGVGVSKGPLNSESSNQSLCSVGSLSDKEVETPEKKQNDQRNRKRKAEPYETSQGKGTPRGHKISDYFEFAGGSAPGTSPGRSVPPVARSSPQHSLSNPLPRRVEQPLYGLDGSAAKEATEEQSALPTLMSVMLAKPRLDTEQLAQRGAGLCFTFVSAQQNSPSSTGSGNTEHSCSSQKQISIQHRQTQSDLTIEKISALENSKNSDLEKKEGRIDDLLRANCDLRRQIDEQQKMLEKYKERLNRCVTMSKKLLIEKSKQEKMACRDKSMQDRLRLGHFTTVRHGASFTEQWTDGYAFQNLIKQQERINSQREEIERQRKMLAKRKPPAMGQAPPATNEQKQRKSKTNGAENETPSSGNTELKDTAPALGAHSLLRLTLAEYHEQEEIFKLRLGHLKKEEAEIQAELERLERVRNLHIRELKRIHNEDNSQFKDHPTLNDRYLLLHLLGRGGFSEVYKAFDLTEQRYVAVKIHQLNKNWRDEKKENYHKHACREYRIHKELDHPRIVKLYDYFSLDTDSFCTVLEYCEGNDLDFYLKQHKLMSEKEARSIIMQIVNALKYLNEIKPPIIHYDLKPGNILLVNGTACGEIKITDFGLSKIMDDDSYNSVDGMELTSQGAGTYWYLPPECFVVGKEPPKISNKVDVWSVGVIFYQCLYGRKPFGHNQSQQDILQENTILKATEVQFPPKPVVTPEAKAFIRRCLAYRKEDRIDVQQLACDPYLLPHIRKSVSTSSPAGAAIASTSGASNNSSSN

[12] = molecular target: Ribosomal protein S6 kinase alpha-5 (Homo sapiens) (UniProt O75582); experiment: Selectivity interaction (KinomeScan (DiscoverX)) EUB0001049a RPS6KA5; details: at 1 µM

Compound: Nc1cnc(N2CCc3cc(S(=O)(=O)Nc4c(F)cc(Cl)cc4F)cc(N4CCCC4=O)c32)nc1 [TP-020n]
% of control [1]: 94%

Compound: COCC(=O)NC/C=C/c1ccc2ncnc(Nc3ccc(Oc4ccc(C)nc4)c(C)c3)c2c1 [CP-724714]
% of control [2]: 100% | % of control [3]: 98% | % of control [4]: 87%

% of inhibition [5]: 6%
Compound: Cc1ccc(-c2ccc3c(ccc4sc5c(c43)NC[C@@H](C)NC5=O)n2)cn1

Compound: C=CC(=O)Nc1ccc(C(=O)Nc2[nH]nc3c2CN(C(=O)N[C@H](CN(C)C)c2ccccc2)C3(C)C)cc1
% of engagement [6]: 2% | % of engagement [7]: -12.8%

% of inhibition [8]: -59.8% | % of inhibition [9]: -20.3% | % of inhibition [10]: -8%
Compound: CC[C@@H]1[C@H](F)C(=O)N[C@@H]1COc1nccc2cc(C(N)=O)c(OC)cc12 [ZIMLOVISERTIB]

Compound: COc1cc(N(C)c2ccnc3ccc(C(F)(F)F)cc23)cc(OC)c1OC
% binding [11]: 92%

Compound: COc1cc(Nc2nc(C)cc(-c3cnn4nc(OC)ccc34)n2)cc(C(F)(F)F)c1
% of control [12]: 100%
